Tested on: endometriotic-like cells
Assay: Estrogen (E2) production ability of endometriotic-like cells from androgens of adrenal origin, Estradiol EIA
Format: cell-based, human
Settings: final concentration 1 mM, 48 hours, cells produced in the step (3)
Procedure: In this Experimental Example, the cells produced in the step (3) were confirmed for their ability to produce estradiol (E2), which was an estrogen. The cells (1×10^5 cells) produced in the step (3) were added to 1 ml of a low-carbon-source proliferation culture medium supplemented with bovine serum albumin (BSA) at 0.1% (v/v) in place of FBS, inoculated into a 12-well plate having a surface coated with collagen type I (derived from rat tail, BD Biosciences, Cat. No. 354236), and cultured for 24 hours at 37° C. in the presence of 5% CO2.
After that, A-dione (Tokyo Chemical Industry Co., Ltd.; androstenedione), DHEA (Tokyo Chemical Industry Co., Ltd.), or DHEA-sulfate (Tokyo Chemical Industry Co., Ltd.; DHEA-S, inactivated adrenal androgen), which was an androgen of adrenal origin, was added to the culture medium so that the final concentration became 1 mM, and the cells were further cultured for 48 hours. As a control (vehicle), the cells were cultured in the same manner as described above except that dimethylsulfoxide (DMSO), which was a solvent, was added in place of the androgen.
The concentration of E2 in the culture supernatant was measured by using Estradiol EIA kit (Cayman Chemical, Cat. No. 582251) according to the manual of the kit.

In the case of `C[C@]12CCC(=O)C=C1CC[C@@H]1[C@@H]2CC[C@]2(C)C(=O)CC[C@@H]12` [A-dione, androstenedione], the “E2 production from the added androgen (concentration of E2 in the culture supernatant)” value (“E2 production from the added androgen” below) is reported as “produced E2”.

In the case of `C[C@]12CC[C@H](O)CC1=CC[C@@H]1[C@@H]2CC[C@]2(C)C(=O)CC[C@@H]12` [DHEA, dehydoepiandorosterone], the “E2 production from the added androgen” value is reported as “produced E2”.

`C[C@]12CC[C@H](OS(=O)(=O)O)CC1=CC[C@@H]1[C@@H]2CC[C@]2(C)C(=O)CC[C@@H]12` [DHEA-S, DHEA-sulfate] was tested, and the “E2 production from the added androgen” value was “did not produce E2”.

Reference: US20160192626A1, “Method For Creating Endometriotic Cells And Endometriosis Model Animal” (KYOTO UNIVERSITY, priority 2013, published 2016)
